{"source": "paper PMC8185074", "about": "“Anchor extension: a structure-guided approach to design cyclic peptides targeting enzyme active sites” (Nature Communications, 2021)", "type_in_all_cases": "biochemical", "key": {"[1]": {"molecular_target": "T1, HDAC8 (Homo sapiens, UniProt Q9BY41)", "T1 construct": "purchased Reaction Biology Corporation (assay run by the CRO)", "T1 sequence (Q9BY41 1-377)": "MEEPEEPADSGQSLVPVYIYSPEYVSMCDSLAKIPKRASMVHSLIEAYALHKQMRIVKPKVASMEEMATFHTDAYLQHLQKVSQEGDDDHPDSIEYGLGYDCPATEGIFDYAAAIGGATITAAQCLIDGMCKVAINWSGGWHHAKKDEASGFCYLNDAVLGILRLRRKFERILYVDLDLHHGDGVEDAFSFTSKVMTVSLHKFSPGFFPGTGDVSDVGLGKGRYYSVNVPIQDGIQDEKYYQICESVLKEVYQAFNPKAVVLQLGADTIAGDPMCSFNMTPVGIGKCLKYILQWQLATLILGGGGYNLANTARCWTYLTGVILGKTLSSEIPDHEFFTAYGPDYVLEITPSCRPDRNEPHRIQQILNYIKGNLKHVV", "assay": "HDAC8 inhibition, full IC50 measurement (Reaction Biology; fluorogenic p53 peptide RHKK(Ac)AMC)", "settings": "t1/t2 replicates", "summary_of_the_method": "(§1)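 Inhibitory peptides were acoustically dispensed with enzyme, then substrate added; 1 h at 30 °C. Developer stopped reaction; plateau endpoint fluorescence (360/460 nm) gave IC50.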"}, "[2]": {"molecular_target": "T2, HDAC1 (Homo sapiens, UniProt Q13547)", "T2 construct": "purchased Reaction Biology Corporation (assay run by the CRO)", "T2 sequence (Q13547 whole entry)": "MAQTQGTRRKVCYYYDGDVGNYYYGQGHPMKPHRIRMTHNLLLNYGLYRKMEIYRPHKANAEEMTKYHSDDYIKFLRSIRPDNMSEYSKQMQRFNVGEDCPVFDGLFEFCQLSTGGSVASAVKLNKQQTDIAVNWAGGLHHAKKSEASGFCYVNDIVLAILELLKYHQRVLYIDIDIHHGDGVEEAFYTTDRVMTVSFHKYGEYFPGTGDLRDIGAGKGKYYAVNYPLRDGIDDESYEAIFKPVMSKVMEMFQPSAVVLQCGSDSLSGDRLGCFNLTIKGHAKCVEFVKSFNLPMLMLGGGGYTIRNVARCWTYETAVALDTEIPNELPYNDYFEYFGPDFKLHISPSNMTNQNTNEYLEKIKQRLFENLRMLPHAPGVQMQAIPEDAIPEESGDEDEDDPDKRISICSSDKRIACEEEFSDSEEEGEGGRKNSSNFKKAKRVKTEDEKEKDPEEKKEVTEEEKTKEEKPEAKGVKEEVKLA", "assay": "HDAC1 inhibition, full IC50 measurement (Reaction Biology; fluorogenic p53 peptide RHKK(Ac)AMC)", "settings": "t1/t2 replicates", "summary_of_the_method": "as §1"}, "[3]": {"molecular_target": "T3, HDAC2 (Homo sapiens, UniProt Q92769)", "T3 construct": "purchased Reaction Biology Corporation (assay run by the CRO)", "T3 sequence (Q92769 whole entry)": "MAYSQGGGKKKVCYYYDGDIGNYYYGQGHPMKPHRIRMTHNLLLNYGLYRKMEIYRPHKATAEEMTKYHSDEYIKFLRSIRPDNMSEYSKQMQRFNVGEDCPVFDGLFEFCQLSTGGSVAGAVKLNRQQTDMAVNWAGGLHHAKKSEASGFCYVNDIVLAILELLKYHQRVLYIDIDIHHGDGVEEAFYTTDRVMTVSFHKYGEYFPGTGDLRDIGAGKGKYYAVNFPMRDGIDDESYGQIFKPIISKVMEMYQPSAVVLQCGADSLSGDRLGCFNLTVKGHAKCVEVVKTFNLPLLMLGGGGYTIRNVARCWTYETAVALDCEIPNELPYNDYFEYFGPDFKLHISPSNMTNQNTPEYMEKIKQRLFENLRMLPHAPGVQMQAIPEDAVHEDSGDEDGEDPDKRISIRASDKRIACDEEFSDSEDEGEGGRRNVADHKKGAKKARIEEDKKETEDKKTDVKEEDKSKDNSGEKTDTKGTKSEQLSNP", "assay": "HDAC2 inhibition, full IC50 measurement (Reaction Biology; fluorogenic p53 peptide RHKK(Ac)AMC)", "summary_of_the_method": "as §1"}, "[4]": {"settings": "peptide conc. 1.00E-05 M, listed as des2.2.0_t1"}, "[5]": {"settings": "peptide conc. 1.00E-05 M, listed as des2.2.0_t2"}, "[6]": {"settings": "peptide conc. 1.11E-06 M, listed as des2.2.0_t1"}, "[7]": {"settings": "peptide conc. 1.11E-06 M, listed as des2.2.0_t2"}, "[8]": {"settings": "peptide conc. 1.23E-07 M, listed as des2.2.0_t1"}, "[9]": {"settings": "peptide conc. 1.23E-07 M, listed as des2.2.0_t2"}, "[10]": {"settings": "peptide conc. 1.37E-08 M, listed as des2.2.0_t1"}, "[11]": {"settings": "peptide conc. 1.37E-08 M, listed as des2.2.0_t2"}, "[12]": {"settings": "peptide conc. 1.52E-09 M, listed as des2.2.0_t1"}, "[13]": {"settings": "peptide conc. 1.52E-09 M, listed as des2.2.0_t2"}, "[14]": {"settings": "peptide conc. 3.33E-06 M, listed as des2.2.0_t1"}, "[15]": {"settings": "peptide conc. 3.33E-06 M, listed as des2.2.0_t2"}, "[16]": {"settings": "peptide conc. 3.70E-07 M, listed as des2.2.0_t1"}, "[17]": {"settings": "peptide conc. 3.70E-07 M, listed as des2.2.0_t2"}, "[18]": {"settings": "peptide conc. 4.12E-08 M, listed as des2.2.0_t1"}, "[19]": {"settings": "peptide conc. 4.12E-08 M, listed as des2.2.0_t2"}, "[20]": {"settings": "peptide conc. 4.57E-09 M, listed as des2.2.0_t1"}, "[21]": {"settings": "peptide conc. 4.57E-09 M, listed as des2.2.0_t2"}, "[22]": {"settings": "peptide conc. 5.08E-10 M, listed as des2.2.0_t1"}, "[23]": {"settings": "peptide conc. 5.08E-10 M, listed as des2.2.0_t2"}}, "note": "Peptide text beside a SMILES is read from it.", "data": [{"molecule": "CC(C)C[C@H]1NC(=O)[C@H](Cc2c[nH]c3ccccc23)NC(=O)[C@H](CCCCCS)NC(=O)[C@@H](Cc2ccc(O)cc2)NC(=O)[C@@H](C(C)C)NC(=O)[C@H](Cc2c[nH]cn2)NC(=O)CNC(=O)CNC(=O)[C@@H](CO)NC1=O", "note": "[des2.2.0, SHA-Trp-dLeu-dSer-Gly-Gly-His-dVal-dTyr] (HELM PEPTIDE1{G.G.H.[dV].[dY].[O=C([C@H](CCCCCS)N[*:1])[*:2]].W.[dL].[dS]}$PEPTIDE1,PEPTIDE1,1:R1-9:R2$$$V2.0)", "values": [{"measurement": "HDAC8 activity raw data (signal)", "setting": "[1]; [4]", "result": 365553}, {"measurement": "HDAC8 activity raw data (signal)", "setting": "[1]; [5]", "result": 330727}, {"measurement": "HDAC8 activity raw data (signal)", "setting": "[1]; [6]", "result": 850929}, {"measurement": "HDAC8 activity raw data (signal)", "setting": "[1]; [7]", "result": 824009}, {"measurement": "HDAC8 activity raw data (signal)", "setting": "[1]; [8]", "result": 979654}, {"measurement": "HDAC8 activity raw data (signal)", "setting": "[1]; [9]", "result": 1006503}, {"measurement": "HDAC8 activity raw data (signal)", "setting": "[1]; [10]", "result": 1072008}, {"measurement": "HDAC8 activity raw data (signal)", "setting": "[1]; [11]", "result": 1101244}, {"measurement": "HDAC8 activity raw data (signal)", "setting": "[1]; [12]", "result": 927307}, {"measurement": "HDAC8 activity raw data (signal)", "setting": "[1]; [13]", "result": 984830}, {"measurement": "HDAC8 activity raw data (signal)", "setting": "[1]; [14]", "result": 572630}, {"measurement": "HDAC8 activity raw data (signal)", "setting": "[1]; [15]", "result": 528648}, {"measurement": "HDAC8 activity raw data (signal)", "setting": "[1]; [16]", "result": 865883}, {"measurement": "HDAC8 activity raw data (signal)", "setting": "[1]; [17]", "result": 851036}, {"measurement": "HDAC8 activity raw data (signal)", "setting": "[1]; [18]", "result": 959123}, {"measurement": "HDAC8 activity raw data (signal)", "setting": "[1]; [19]", "result": 1003485}, {"measurement": "HDAC8 activity raw data (signal)", "setting": "[1]; [20]", "result": 938538}, {"measurement": "HDAC8 activity raw data (signal)", "setting": "[1]; [21]", "result": 927098}, {"measurement": "HDAC8 activity raw data (signal)", "setting": "[1]; [22]", "result": 862623}, {"measurement": "HDAC8 activity raw data (signal)", "setting": "[1]; [23]", "result": 898356}, {"measurement": "HDAC1 activity raw data (signal)", "setting": "[2]; [4]", "result": 393754}, {"measurement": "HDAC1 activity raw data (signal)", "setting": "[2]; [5]", "result": 398456}, {"measurement": "HDAC1 activity raw data (signal)", "setting": "[2]; [6]", "result": 771529}, {"measurement": "HDAC1 activity raw data (signal)", "setting": "[2]; [7]", "result": 714587}, {"measurement": "HDAC1 activity raw data (signal)", "setting": "[2]; [8]", "result": 815475}, {"measurement": "HDAC1 activity raw data (signal)", "setting": "[2]; [9]", "result": 811874}, {"measurement": "HDAC1 activity raw data (signal)", "setting": "[2]; [10]", "result": 879707}, {"measurement": "HDAC1 activity raw data (signal)", "setting": "[2]; [11]", "result": 762845}, {"measurement": "HDAC1 activity raw data (signal)", "setting": "[2]; [12]", "result": 835131}, {"measurement": "HDAC1 activity raw data (signal)", "setting": "[2]; [13]", "result": 788807}, {"measurement": "HDAC1 activity raw data (signal)", "setting": "[2]; [14]", "result": 631956}, {"measurement": "HDAC1 activity raw data (signal)", "setting": "[2]; [15]", "result": 567009}, {"measurement": "HDAC1 activity raw data (signal)", "setting": "[2]; [16]", "result": 777508}, {"measurement": "HDAC1 activity raw data (signal)", "setting": "[2]; [17]", "result": 771678}, {"measurement": "HDAC1 activity raw data (signal)", "setting": "[2]; [18]", "result": 776525}, {"measurement": "HDAC1 activity raw data (signal)", "setting": "[2]; [19]", "result": 821518}, {"measurement": "HDAC1 activity raw data (signal)", "setting": "[2]; [20]", "result": 820973}, {"measurement": "HDAC1 activity raw data (signal)", "setting": "[2]; [21]", "result": 805068}, {"measurement": "HDAC1 activity raw data (signal)", "setting": "[2]; [22]", "result": 825935}, {"measurement": "HDAC1 activity raw data (signal)", "setting": "[2]; [23]", "result": 859992}, {"measurement": "HDAC2 activity raw data (signal)", "setting": "[3]; Conc. 1.00E-05 M, t1", "result": 686926}, {"measurement": "HDAC2 activity raw data (signal)", "setting": "[3]; Conc. 1.00E-05 M, t2", "result": 755168}, {"measurement": "HDAC2 activity raw data (signal)", "setting": "[3]; Conc. 1.11E-06 M, t1", "result": 808545}, {"measurement": "HDAC2 activity raw data (signal)", "setting": "[3]; Conc. 1.11E-06 M, t2", "result": 1100762}, {"measurement": "HDAC2 activity raw data (signal)", "setting": "[3]; Conc. 1.23E-07 M, t1", "result": 837329}, {"measurement": "HDAC2 activity raw data (signal)", "setting": "[3]; Conc. 1.23E-07 M, t2", "result": 1005687}, {"measurement": "HDAC2 activity raw data (signal)", "setting": "[3]; Conc. 1.37E-08 M, t1", "result": 715440}, {"measurement": "HDAC2 activity raw data (signal)", "setting": "[3]; Conc. 1.37E-08 M, t2", "result": 821926}, {"measurement": "HDAC2 activity raw data (signal)", "setting": "[3]; Conc. 1.52E-09 M, t1", "result": 554743}, {"measurement": "HDAC2 activity raw data (signal)", "setting": "[3]; Conc. 1.52E-09 M, t2", "result": 656599}, {"measurement": "HDAC2 activity raw data (signal)", "setting": "[3]; Conc. 3.33E-06 M, t1", "result": 690169}, {"measurement": "HDAC2 activity raw data (signal)", "setting": "[3]; Conc. 3.33E-06 M, t2", "result": 996724}, {"measurement": "HDAC2 activity raw data (signal)", "setting": "[3]; Conc. 3.70E-07 M, t1", "result": 822571}, {"measurement": "HDAC2 activity raw data (signal)", "setting": "[3]; Conc. 3.70E-07 M, t2", "result": 1061380}, {"measurement": "HDAC2 activity raw data (signal)", "setting": "[3]; Conc. 4.12E-08 M, t1", "result": 840443}, {"measurement": "HDAC2 activity raw data (signal)", "setting": "[3]; Conc. 4.12E-08 M, t2", "result": 955487}, {"measurement": "HDAC2 activity raw data (signal)", "setting": "[3]; Conc. 4.57E-09 M, t1", "result": 679123}, {"measurement": "HDAC2 activity raw data (signal)", "setting": "[3]; Conc. 4.57E-09 M, t2", "result": 728514}, {"measurement": "HDAC2 activity raw data (signal)", "setting": "[3]; Conc. 5.08E-10 M, t1", "result": 632244}, {"measurement": "HDAC2 activity raw data (signal)", "setting": "[3]; Conc. 5.08E-10 M, t2", "result": 668167}]}]}
